Consider 16 molecules from PubChem BioAssay (NCI).

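Test compounds were applied to cells in 96-well plates for 48 hours at 5 doses. Definition used: TGI = concentration required for complete inhibition of growth.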

A word on the TGI: it is the concentration at which net growth stops. A low value points to greater sensitivity of the cells.

Some test systems named below: HCT-15 colon; K-562 leukemia; NCI-H226 lung; OVCAR-3 ovarian; OVCAR-8 ovarian; RXF 393 renal; SR leukemia; UO-31 renal; SK-MEL-5 melanoma.
Common to all, as to assay: DTP human tumour cell line panel, 48 h

With `C=C1c2[nH]c3c([N+](=O)[O-])c(OC)ccc3c2CCN1C(C)=O`, the TGI in the assay on HCT-15 colon, in the assay with K-562 leukemia, with NCI-H226 lung, in the assay with OVCAR-3 ovarian, with OVCAR-8 ovarian and in the assay with RXF 393 renal was more than 100 µM throughout. In addition, the total growth inhibition concentration (TGI) in the assay with SR leukemia and in the assay with UO-31 renal was more than 100 µM in each case.
As for `C/C(CC(=O)Nc1ccc(Cl)cc1)=N\NC(N)=S`, the total growth inhibition concentration (TGI) in the assay with K-562 leukemia, in the assay with OVCAR-3 ovarian, in the assay with OVCAR-8 ovarian, in the assay with RXF 393 renal and in the assay with SK-MEL-5 melanoma was more than 100 µM each time.
Regarding `C[C@]12CCC3[C@@H](CC[C@@H]4c5nonc5CC[C@]34C)C1C/C(=N/O)C2=O` (stereo partly drawn), the TGI in the assay with HCT-15 colon, in the assay on K-562 leukemia, in the assay on NCI-H226 lung, in the assay with OVCAR-3 ovarian, in the assay with OVCAR-8 ovarian and in the assay on RXF 393 renal was more than 100 µM throughout. Also, the TGI in the assay on SK-MEL-5 melanoma and in the assay with UO-31 renal was more than 100 µM throughout.
Regarding `CCOC(=O)NC(=O)c1cn(CCCCCCOC(=O)NCCCCCCNC(=O)OCCCCCCn2cc(C(=O)NC(=O)OCC)c(=O)[nH]c2=O)c(=O)[nH]c1=O`, the TGI in the assay on HCT-15 colon, in the assay with K-562 leukemia, in the assay on NCI-H226 lung, in the assay on OVCAR-3 ovarian, in the assay with OVCAR-8 ovarian and with RXF 393 renal was more than 100 µM each time. The TGI in the assay on SK-MEL-5 melanoma and in the assay on UO-31 renal was more than 100 µM in each case.
Regarding `CN(C(=O)c1ccco1)C(=S)N1CCN(c2ccccc2)CC1`, the TGI in the assay with HCT-15 colon, in the assay on K-562 leukemia, in the assay on NCI-H226 lung, in the assay with OVCAR-3 ovarian, with OVCAR-8 ovarian and in the assay with RXF 393 renal was more than 100 µM each time. Also, the total growth inhibition concentration (TGI) with SK-MEL-5 melanoma, with SR leukemia and with UO-31 renal was more than 100 µM in each case.
For `O=C1CC(S(=O)(=O)O)C=C1Nc1cccc(Cl)c1` (stereo not drawn), the TGI in the assay on K-562 leukemia, in the assay on NCI-H226 lung, in the assay on OVCAR-3 ovarian, with OVCAR-8 ovarian, in the assay on RXF 393 renal and in the assay on SK-MEL-5 melanoma was more than 100 µM throughout. For the same molecule, the TGI in the assay on SR leukemia and in the assay on UO-31 renal was more than 100 µM in each case.
Turning to `Cc1ccc(N2C(=O)C3C=CC(n4[nH]c(=O)n(Cc5ccccc5)c4=O)CC3C2=O)cc1` (stereo not drawn), the total growth inhibition concentration (TGI) in the assay on HCT-15 colon, with K-562 leukemia, in the assay on NCI-H226 lung, with OVCAR-3 ovarian, with OVCAR-8 ovarian and in the assay on RXF 393 renal was more than 100 µM each time. Further, the TGI with SK-MEL-5 melanoma, in the assay on SR leukemia and in the assay on UO-31 renal was more than 100 µM in each case.
For the molecule `O=CC1CCCc2ccccc21` (stereo not drawn), the TGI in the assay with HCT-15 colon was more than 91.6 µM; in the assay with K-562 leukemia it was more than 100 µM; in the assay with NCI-H226 lung, more than 100 µM; in the assay with OVCAR-3 ovarian, more than 100 µM; with OVCAR-8 ovarian, more than 100 µM; in the assay with RXF 393 renal, more than 100 µM. For the same molecule, the TGI with SK-MEL-5 melanoma, in the assay with SR leukemia and in the assay on UO-31 renal was more than 100 µM each time.
For `COC(=O)c1cc(Cl)ccc1NC(=O)c1ccc([N+](=O)[O-])cc1`, the TGI in the assay with HCT-15 colon is more than 100 µM; in the assay with K-562 leukemia it was more than 100 µM; with NCI-H226 lung, 42.5 µM; in the assay with OVCAR-3 ovarian it was 31.4 µM; with OVCAR-8 ovarian, 63.9 µM; in the assay with RXF 393 renal, 65.6 µM. The concentration for total growth inhibition (TGI) in the assay with SK-MEL-5 melanoma is more than 100 µM; in the assay with UO-31 renal it was 38.7 µM.
With `COc1ccc(/C=N/N=C(\N)NO)c(OC)c1`, the TGI with HCT-15 colon, in the assay with K-562 leukemia, in the assay with NCI-H226 lung, in the assay with OVCAR-3 ovarian, in the assay on OVCAR-8 ovarian and in the assay with RXF 393 renal was more than 100 µM in each case. Further, the TGI in the assay on SK-MEL-5 melanoma and in the assay with UO-31 renal was more than 100 µM each time.
Regarding `O=S1(=O)OCCOS(=O)(=O)C1Cc1ccccc1`, the TGI with K-562 leukemia is more than 100 µM; in the assay with NCI-H226 lung, more than 100 µM; in the assay on OVCAR-3 ovarian it was 44.9 µM; in the assay on OVCAR-8 ovarian it was more than 100 µM; in the assay on RXF 393 renal, more than 100 µM; in the assay with SR leukemia, more than 100 µM. This molecule also returned a TGI in the assay on UO-31 renal of more than 100 µM.
`COC(=O)C1=C(c2cc(OC)c(OC)c(OC)c2)OC(c2ccc(OC)c(OC)c2)C1` (stereo not drawn): the TGI in the assay on HCT-15 colon, in the assay on K-562 leukemia, in the assay with NCI-H226 lung, with OVCAR-3 ovarian, in the assay on OVCAR-8 ovarian and in the assay on RXF 393 renal was more than 100 µM in each case. Besides, the TGI in the assay on SK-MEL-5 melanoma is 93.7 µM; with SR leukemia it was more than 100 µM; with UO-31 renal, more than 100 µM.
`COc1ccc(C(=O)C(c2ccc(OC)cc2)C2(O)C(=O)Nc3c2ccc(Cl)c3C)cc1` (stereo not drawn): the TGI with HCT-15 colon, in the assay on K-562 leukemia, in the assay on NCI-H226 lung, in the assay with OVCAR-3 ovarian, in the assay on OVCAR-8 ovarian and with RXF 393 renal was more than 100 µM throughout. Besides, the TGI in the assay with SK-MEL-5 melanoma and with UO-31 renal was more than 100 µM throughout.
Turning to `C1=C2/CC[C@H](Sc3ccccc3)[C@H]2C2(CCCCC/1)OCCO2`, the TGI in the assay with HCT-15 colon is more than 100 µM; with K-562 leukemia, more than 100 µM; with OVCAR-3 ovarian, 81.7 µM; in the assay with OVCAR-8 ovarian it was more than 100 µM; in the assay on SK-MEL-5 melanoma it was 59.1 µM; in the assay on SR leukemia, more than 100 µM. Moreover, in the assay with UO-31 renal, the TGI is more than 100 µM.
On to `N#CC(c1nc2ccccc2nc1Cl)S(=O)(=O)c1ccccc1` (stereo not drawn), for which the TGI with HCT-15 colon, in the assay on K-562 leukemia, with NCI-H226 lung, with OVCAR-3 ovarian, in the assay on OVCAR-8 ovarian and with SK-MEL-5 melanoma was more than 100 µM each time. The TGI with SR leukemia and with UO-31 renal was more than 100 µM in each case.
Take `Cc1[nH]c2ccccc2c1C1Cc2ccccc2N1C(=O)/C=C/C(=O)O` (stereo not drawn): the TGI in the assay on HCT-15 colon is 33 µM; in the assay on K-562 leukemia, more than 100 µM; with NCI-H226 lung it was more than 100 µM; in the assay on OVCAR-3 ovarian, more than 100 µM; with OVCAR-8 ovarian, more than 100 µM; with RXF 393 renal, more than 100 µM. Further, the TGI with SK-MEL-5 melanoma, with SR leukemia and with UO-31 renal was more than 100 µM throughout.
